Results on four molecules are retold here after PMC4126480, “Evaluation of drug interaction potential of Labisia pumila (Kacip Fatimah) and its constituents” (Frontiers in Pharmacology, 2014).

Each structure is given as a SMILES string. Several values for one entry are separate records, joined by “and”; a condition that tells them apart may be missing. Equal values may be shown once.

The target in data set [1] is T1, CYP2C19 (Homo sapiens, UniProt P33261).
T1 construct: purchased BD Gentest (Woburn, MA, USA); host or cells: baculovirus expression system
The data set is described as follows: Time dependent inhibition (pre-incubation assay) of recombinant CYP2C19. The class given is in vitro ADME. To be noted: recombinant CYP2C19, 30 min pre-incubation. The method, then:
(§1) Time dependent inhibition (TDI) of CYPs was measured as described earlier by [Sekiguchi et al. (2009)]. The reaction mixture (180–190 μL), consisting of test sample, recombinant enzyme, control protein (0.05 mg of protein/mL), cofactor mix, G-6-PDH, and 50 mM potassium phosphate buffer (pH 7.4) was pre-incubated for 30 min followed by addition of respective fluorescent substrates (10–20 μL) and further incubation for 15 (CYP1A2), 30 (CYP3A4), or 45 (CYP 2C9 and 2C19) min. The reaction was terminated by addition of 75 μL of ice cold acetonitrile/0.5 M Tris base (80:20) and fluorescence was measured as above. IC50 values (pre-incubation assay) were obtained as above. The shift in the concentration-response curve was calculated as the ratio of IC50 (co-incubation)/IC50 (pre-incubation).

The target of data set [2] is T1, CYP2C19. The data set is described as follows: Reversible inhibition (co-incubation assay) of recombinant CYP2C19. The format is in vitro ADME. The method, then:
(§2) The assay for reversible inhibition was conducted in a total volume of 200 μL in 96-well microplates. The assay conditions, enzyme and substrate concentrations were similar as reported earlier ([Crespi et al., 1997]; [Manda et al., 2013]). Test samples or positive controls were serially diluted in a solution (100 μL) of cofactors mix, control protein (0.05 mg of protein/mL), and G-6-PDH to achieve six concentrations (100-0.4 μM or μg/mL). Initial readings were taken to record any inherent fluorescence and the plates were incubated at 37°C for 10 min. Reaction was initiated by the addition of enzyme substrate mixture (100 μL) followed by incubation for 15, 30, or 45 min. The reaction was terminated by the addition of 75 μL of ice cold acetonitrile/0.5 M Tris base (80:20). Fluorescence was measured on Spectramax M5 plate reader (Molecular Devices, Sunnyvale, CA, USA) at specified excitation and emission wavelengths for each substrate. IC50 values (co-incubation assay) were obtained from concentration-response curves generated by plotting concentration versus % inhibition.

Data set [3] has as its target T2, CYP2C9 (Homo sapiens, UniProt P11712).
T2 construct: purchased BD Gentest (Woburn, MA, USA); host or cells: baculovirus expression system
Briefly: Prediction of in vivo HDI from in vitro results, CYP2C9. Also on record: key to Likelihood of causing HDI: If the IC50 values were lower than the GIT or plasma concentration, then the test compound or extract is likely to cause HDI in vivo. Conditions: for Likelihood of causing HDI: CYP2C9, IC50 compared with estimated GIT and plasma concentrations; for Plasma concentration: Table 3, CYP2C9 section. On the procedure: (§3) All assumptions to predict the HDI potential of KF methanolic extract and its constituents were according to previously published report ([Awortwe et al., 2014]). The % yield was calculated from the amounts extracted from the KF roots ([Ali and Khan, 2011]). The human GIT volume is 250 mL and plasma volume is about 3 L. The commonly used maximum dose of KF extract capsules is 560 mg per day ([Abdul Kadir et al., 2012]) and accordingly we estimated the concentration per dose, GIT, and plasma concentrations of extract and its constituents. We then compared the in vitro IC50 values obtained from recombinant CYPs with estimated GIT and plasma concentrations. If the IC50 values were lower than the GIT or plasma concentration, then the test compound or extract is likely to cause HDI in vivo.

Data set [4] concerns the target T3, CYP2D6 (Homo sapiens, UniProt P10635).
T3 construct: purchased BD Gentest (Woburn, MA, USA); host or cells: baculovirus expression system
Briefly: Reversible inhibition of recombinant CYP2D6. The class given is in vitro ADME. The method, then: as §2

The target in data set [5] is T4, CYP3A4 (Homo sapiens, UniProt P08684).
T4 construct: purchased BD Gentest (Woburn, MA, USA); host or cells: baculovirus expression system
Briefly: Time dependent inhibition (pre-incubation assay) of recombinant CYP3A4. The class given is in vitro ADME. The method, then:
as §1, with “The” for “Time dependent inhibition (TDI) of CYPs was measured as described earlier by [Sekiguchi et al. (2009)]. The”

Data set [6] addresses T1, CYP2C19. The data set is described as follows: Prediction of in vivo HDI from in vitro results, CYP2C19. Details: key to Likelihood of causing HDI: If the IC50 values were lower than the GIT or plasma concentration, then the test compound or extract is likely to cause HDI in vivo. To be noted: for Likelihood of causing HDI: CYP2C19, IC50 compared with estimated GIT and plasma concentrations; for Plasma concentration: Table 3, CYP2C19 section. The method, then: as §3

In data set [7] the target is T3, CYP2D6. Briefly: Prediction of in vivo HDI from in vitro results, CYP2D6. Conditions: for Likelihood of causing HDI: CYP2D6, IC50 compared with estimated GIT and plasma concentrations; for Plasma concentration: Table 3, CYP2D6 section. The method, then:
as §3

Data set [8] in a line: Estimation of concentration per dose, GIT and plasma concentrations (560 mg KF extract dose). Conditions: for Estimated concentration per dose: 560 mg KF extract, single dose, from % yield; for Estimated GIT concentration / Estimated Plasma concentration: 560 mg dose; for Estimated GIT concentration: human GIT volume 250 mL; for Estimated Plasma concentration: Table 2, plasma volume 3 L, 100% bioavailable assumed. Also on record: species or system human. The method, then: as §3

Data set [9] addresses T4, CYP3A4. The data set is described as follows: Prediction of in vivo HDI from in vitro results, CYP3A4. Details: key to Likelihood of causing HDI: If the IC50 values were lower than the GIT or plasma concentration, then the test compound or extract is likely to cause HDI in vivo. To be noted: for Likelihood of causing HDI: CYP3A4, IC50 compared with estimated GIT and plasma concentrations; for Plasma concentration: Table 3, CYP3A4 section. On the procedure: as §3

Data set [10] deals with T2, CYP2C9. The data set is described as follows: Time dependent inhibition (pre-incubation assay) of recombinant CYP2C9. The class given is in vitro ADME. To be noted: recombinant CYP2C9, 30 min pre-incubation. The method, then:
as §1

In data set [11] the target is T4, CYP3A4. The data set is described as follows: Reversible inhibition (co-incubation assay) of recombinant CYP3A4, fluorescent substrate. The class given is in vitro ADME. The method, then:
as §2, with “The assay conditions, enzyme and substrate concentrations were similar as reported earlier ([Crespi et al., 1997]; [Manda et al., 2013]).” left out

The mark [12] stands for this setting: recombinant CYP2C19, co-incubation.

T4 sequence (P08684 whole entry): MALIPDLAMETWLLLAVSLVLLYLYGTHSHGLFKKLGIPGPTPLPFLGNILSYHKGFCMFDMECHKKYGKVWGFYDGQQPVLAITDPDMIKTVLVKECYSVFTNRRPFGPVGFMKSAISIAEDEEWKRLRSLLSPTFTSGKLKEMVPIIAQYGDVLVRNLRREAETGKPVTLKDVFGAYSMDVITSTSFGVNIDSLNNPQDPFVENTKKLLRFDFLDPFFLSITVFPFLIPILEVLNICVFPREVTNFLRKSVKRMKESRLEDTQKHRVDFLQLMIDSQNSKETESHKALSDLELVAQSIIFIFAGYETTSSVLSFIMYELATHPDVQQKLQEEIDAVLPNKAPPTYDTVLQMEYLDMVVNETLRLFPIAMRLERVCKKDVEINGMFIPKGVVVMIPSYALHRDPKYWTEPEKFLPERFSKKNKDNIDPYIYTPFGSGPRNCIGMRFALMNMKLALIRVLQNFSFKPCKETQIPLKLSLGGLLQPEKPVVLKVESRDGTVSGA
T2 sequence (P11712 whole entry): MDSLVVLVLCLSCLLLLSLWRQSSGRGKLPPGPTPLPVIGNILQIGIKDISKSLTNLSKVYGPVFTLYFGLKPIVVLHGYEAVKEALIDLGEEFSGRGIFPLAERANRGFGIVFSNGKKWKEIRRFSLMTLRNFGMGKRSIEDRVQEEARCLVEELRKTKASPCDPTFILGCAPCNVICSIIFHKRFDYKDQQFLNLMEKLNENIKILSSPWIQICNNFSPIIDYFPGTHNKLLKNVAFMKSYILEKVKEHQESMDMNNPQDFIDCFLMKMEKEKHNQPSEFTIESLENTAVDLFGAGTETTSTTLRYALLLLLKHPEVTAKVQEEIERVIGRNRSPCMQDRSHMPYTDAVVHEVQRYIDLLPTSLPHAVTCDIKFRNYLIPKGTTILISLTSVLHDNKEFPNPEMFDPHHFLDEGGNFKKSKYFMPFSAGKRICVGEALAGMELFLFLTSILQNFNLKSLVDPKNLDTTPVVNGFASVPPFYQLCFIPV
T3 sequence (P10635 whole entry): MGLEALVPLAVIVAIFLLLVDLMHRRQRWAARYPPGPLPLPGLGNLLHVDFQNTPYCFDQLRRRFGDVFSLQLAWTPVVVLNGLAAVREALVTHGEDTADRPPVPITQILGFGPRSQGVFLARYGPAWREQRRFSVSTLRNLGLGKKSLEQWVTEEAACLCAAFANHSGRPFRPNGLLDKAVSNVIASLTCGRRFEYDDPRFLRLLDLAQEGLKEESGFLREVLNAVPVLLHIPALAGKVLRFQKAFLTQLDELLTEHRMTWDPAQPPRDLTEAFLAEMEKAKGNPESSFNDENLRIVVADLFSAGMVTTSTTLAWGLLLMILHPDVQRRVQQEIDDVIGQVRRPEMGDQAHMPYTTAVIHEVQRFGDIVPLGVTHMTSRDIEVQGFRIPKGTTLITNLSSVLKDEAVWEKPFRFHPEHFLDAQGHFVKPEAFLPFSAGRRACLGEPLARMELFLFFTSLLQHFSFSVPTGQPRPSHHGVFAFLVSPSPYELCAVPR
T1 sequence (P33261 whole entry): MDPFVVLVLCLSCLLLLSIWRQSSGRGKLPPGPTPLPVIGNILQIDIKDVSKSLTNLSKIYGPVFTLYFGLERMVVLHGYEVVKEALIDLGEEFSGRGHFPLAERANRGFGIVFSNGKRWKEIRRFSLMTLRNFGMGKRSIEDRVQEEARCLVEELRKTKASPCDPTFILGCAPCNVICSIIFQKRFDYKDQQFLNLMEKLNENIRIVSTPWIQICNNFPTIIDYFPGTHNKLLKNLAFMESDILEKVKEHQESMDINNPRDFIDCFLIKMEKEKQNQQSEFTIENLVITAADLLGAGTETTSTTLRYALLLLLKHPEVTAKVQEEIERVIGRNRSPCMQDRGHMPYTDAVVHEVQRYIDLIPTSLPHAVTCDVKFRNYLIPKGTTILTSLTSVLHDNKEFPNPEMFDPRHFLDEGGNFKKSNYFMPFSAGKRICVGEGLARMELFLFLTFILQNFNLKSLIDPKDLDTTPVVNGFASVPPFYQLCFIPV

In the case of `CCCC/C=C\CCCCCCCCCc1cc(O)cc(OC)c1` [Belamcandol B], the IC50 at CYP2C19 [1] was 3.2 ± 0.3 µM; at CYP2C19 [2] (human, recombinant CYP2C19, recombinant CYP2C19, co-incubation) it was 2.2 µg/mL; at CYP2C19 [2] (setting [12]) it was 2.2 ± 0.6 µM; on CYP2D6 [4], 105 µM; on CYP3A4 [5], 10 ± 1.3 µM; at CYP2C9 [10], 23 ± 2.1 µM. Further, the IC50 on CYP3A4 [11] is 18 µM and 45.1 µM. The “Likelihood of causing HDI” value at CYP2C9 [3] is “remote”; at CYP2C19 [6] it was “likely”; at CYP2D6 [7] it was “unlikely”; at CYP3A4 [9], “Remote”. Moreover, the Plasma concentration on CYP2D6 [7] was 0.65 µg/mL; at CYP3A4 [9], 1.52 µg/mL. Besides, in data set [8], the “Estimated concentration per dose” value was 3.41 mg/mL. Besides, the “Estimated GIT concentration” value in data set [8] was 13.64 µg/mL. Further, the “Estimated Plasma concentration” value in data set [8] was 1.13 µg/mL.
In the case of `CCCC/C=C\CCCCCCCCCc1cc(O)cc(O)c1` [5-[10(Z)-pentadecenyl]resorcinol], the IC50 at CYP2C19 [1] is 3.2 ± 0.2 µM; at CYP2C19 [2] (setting [12]) it was 3.77 µM; at CYP2D6 [4], 87.9 µM; on CYP3A4 [5] it was 0.3 ± 0.06 µM; on CYP2C9 [10] it was 8 ± 1.4 µM; at CYP3A4 [11], 4.1 µM and 4.4 µM. For the same molecule, the “Likelihood of causing HDI” value was “likely” at CYP2C9 [3], “likely” on CYP2C19 [6], “Remote” on CYP2D6 [7] and “likely” at CYP3A4 [9]. Besides, the Plasma concentration is 13.22 µg/mL at CYP2C9 [3], 13.22 µg/mL at CYP2C19 [6], 1.46 µg/mL on CYP2D6 [7] and 13.22 µg/mL at CYP3A4 [9]. For the same molecule, the “Estimated concentration per dose” value in data set [8] is listed as 6.72 mg/mL. Also, the “Estimated GIT concentration” value in [8] was 27.1 µg/mL. The “Estimated Plasma concentration” value in data set [8] was 2.2 µg/mL.
Turning to `CCCC/C=C\CCCCCCCCCc1cc(O)cc2oc3cc(OC)c(O)c(CCCCCCCCC/C=C\CCCC)c3c12` [Fatimahol], the IC50 on CYP2C19 [1] is 16 ± 1.1 µM; on CYP2C19 [2] (setting [12]), 17 µM; on CYP3A4 [5] it was 4.4 ± 1.3 µM; at CYP2C9 [10] it was 23 ± 1.5 µM; at CYP3A4 [11] it was 25 µM and 24.7 µM. The “Likelihood of causing HDI” value on CYP2C9 [3], on CYP2C19 [6], at CYP2D6 [7] and on CYP3A4 [9] was “unlikely” each time. For the same molecule, the Plasma concentration at CYP2C9 [3], on CYP2C19 [6], at CYP2D6 [7] and on CYP3A4 [9] was 0.016 µg/mL each time. The “Estimated concentration per dose” value in [8] is 0.05 mg/mL. In addition, the “Estimated GIT concentration” value in data set [8] is 0.20 µg/mL. Also, the “Estimated Plasma concentration” value in [8] was 0.016 µg/mL.
`CCCC/C=C\CCCCCCCCCC1=C(c2c(O)cc(O)cc2CCCCCCCCC/C=C\CCCC)C(=O)C=C(OC)C1=O` [Demethylbelamcandaquinone B]: the IC50 on CYP2C19 [1] is 11 ± 0.7 µM; on CYP2C19 [2] (setting [12]) it was 8 µM and 7.99 µM; at CYP2D6 [4] it was 33.2 µM; at CYP3A4 [5], 26 ± 1.5 µM; at CYP2C9 [10], 22 ± 1.8 µM; on CYP3A4 [11], 69 µM and 67.9 µM. For the same molecule, the “Likelihood of causing HDI” value at CYP2C9 [3] is given as “likely”; on CYP2C19 [6], “likely”; on CYP2D6 [7], “unlikely”; on CYP3A4 [9], “unlikely”. The Plasma concentration on CYP2C9 [3] was 0.79 µg/mL; at CYP2C19 [6], 0.79 µg/mL; at CYP2D6 [7], 1.64 µg/mL; at CYP3A4 [9] it was 0.79 µg/mL. Besides, the “Estimated concentration per dose” value in [8] is reported as 6.77 mg/mL. In data set [8], the “Estimated GIT concentration” value is 27.1 µg/mL. The “Estimated Plasma concentration” value in data set [8] is 2.25 µg/mL.
